The subject of one assay is HepG2 cells. The assay can be described thus: Cellular uptake / binding of FAM-labeled ligands to HepG2 cells (flow cytometry, proportion of FAM positive cells). The format is cell-based, human. To be noted: for Efficiency (%) of cellular uptake (percentage of ligand-bound HepG2 cells): 24 h. The procedure:
The human hepatocellular carcinoma (HepG2) cell line was purchased from Shanghai Zhong Qiao Xin Zhou Biotechnology Co., Ltd. and maintained in minimum essential medium (Gibco, ThermoFisher Scientific, USA) with 10% fetal bovine serum (Gibco, ThermoFisher Scientific, USA), 200 units/mL penicillin plus 200 units/mL streptomycin at 37° C. with 5% CO2.
Cells were seeded in 24-well plates with a density of 1.5×10^5 cells per well and incubated under 37° C., 5% CO2. After 18 h of incubation, media were replaced to MEM with 2% FBS and FAM-labeled ligands were added with final concentrations of 1.6, 8, 40 or 200 nM. After 24 h of incubation, cells were washed twice with 1×PBS and analyzed by LSRFortessa (BD Biosciences, NJ, USA). The binding efficiency was evaluated by the proportion of FAM positive cells.
HepG2 cell was treated by 14 cyclic peptide-tri-GalNAc ligand variants with serial diluted concentration of 1.6, 8, 40 or 200 nM. Commercialized tri-GalNAc used in Givosirna was used as positive control and cyclic peptide w/o tri-GalNAc was negative control. […] Equilibrium dissociation constant (kd) for 5-FAM-CPMB-0013 (ID013), 5-FAM-CPMB-0023 (ID023), 5-FAM-CPMB-0035 (ID035) and commercialized tri-GalNAC were 7.0, 8.6, 5.7 and 18 nM, respectively.

Assay [1] addresses asialoglycoprotein receptor (ASGPR) on HepG2 cells (human) (UniProt P07306). The assay can be described thus: flow cytometry, % FAM-positive HepG2 cells after 24 h with 8 nM ligand. Background: A flow cytometer gives signals particle by particle.
Assay [2] has the same target. The assay can be described thus: flow cytometry, % FAM-positive HepG2 cells after 24 h with 1.6 nM ligand.
Assay [3] shares this target. The assay is described as follows: flow cytometry, % FAM-positive HepG2 cells after 24 h with 200 nM ligand.
For assay [4] the target is unchanged. The assay is described as follows: flow cytometry, % FAM-positive HepG2 cells after 24 h with 40 nM ligand.

Square brackets hold non-standard residues; d marks the D form. Side chains are listed from the residue outwards. * marks the point of attachment. Gal‑1 = GalNAc linker: 5-(GalNAc-oxy)pentanoic acid (3-acetamido-4,5-diacetoxy-6-(acetoxymethyl)tetrahydropyran-2-yl-oxy)pentanoic acid; 5FAM = O=C1OC2(c3ccc(O)cc3Oc3cc(O)ccc32)c2ccc(C(=O)*)cc21; Linker2 = 6-aminohexyl amide linker; GalNAc = N-acetylgalactosamine

asialoglycoprotein receptor (ASGPR) on HepG2 cells (human), sequence (P07306 whole entry, chain 1 of 2): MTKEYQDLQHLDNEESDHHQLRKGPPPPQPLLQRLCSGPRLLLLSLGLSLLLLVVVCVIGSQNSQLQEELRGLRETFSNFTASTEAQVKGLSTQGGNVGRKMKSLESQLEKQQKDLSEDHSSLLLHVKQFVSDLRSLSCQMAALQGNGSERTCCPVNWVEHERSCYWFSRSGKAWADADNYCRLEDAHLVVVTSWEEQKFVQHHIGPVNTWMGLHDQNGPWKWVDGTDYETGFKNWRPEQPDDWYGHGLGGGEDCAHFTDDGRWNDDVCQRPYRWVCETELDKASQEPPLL
asialoglycoprotein receptor (ASGPR) on HepG2 cells (human), sequence (P07307 whole entry, chain 2 of 2, further chain): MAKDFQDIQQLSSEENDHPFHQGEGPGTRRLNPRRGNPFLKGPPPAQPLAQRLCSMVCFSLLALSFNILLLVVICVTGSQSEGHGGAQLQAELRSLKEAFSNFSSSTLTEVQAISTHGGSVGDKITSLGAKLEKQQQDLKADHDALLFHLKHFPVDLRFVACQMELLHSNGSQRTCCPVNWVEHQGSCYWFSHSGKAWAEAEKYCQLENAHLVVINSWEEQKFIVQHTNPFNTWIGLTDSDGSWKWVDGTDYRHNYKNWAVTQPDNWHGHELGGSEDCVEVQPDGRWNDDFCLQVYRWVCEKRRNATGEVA

For the molecule “5-FAM-CPMB-0011: CPS-001 cyclic peptide scaffold, Gal-1 GalNAc linker, 5-FAM label; FIG. 14A (KEKGKG; cyclised or stapled)”, the “Efficiency (%) of cellular uptake (percentage of ligand-bound HepG2 cells)” value in the assay with HepG2 cells (1.6 nM ligand, HepG2) stood at 3.0%; with HepG2 cells (8 nM ligand, HepG2), 20.1%; with HepG2 cells (40 nM ligand, HepG2) it was 67.7%; with HepG2 cells (200 nM ligand, HepG2), 94.2%.

Consider “5-FAM-CPMB-0012: CPS-001 cyclic peptide scaffold, Gal-2 GalNAc linker, 5-FAM label; FIG. 14B (KEKGKG; not fully specified; cyclised or stapled)”, for which the “Efficiency (%) of cellular uptake (percentage of ligand-bound HepG2 cells)” value in the assay with HepG2 cells (1.6 nM ligand, HepG2) was 1.2%; with HepG2 cells (8 nM ligand, HepG2), 19.6%; in the assay with HepG2 cells (40 nM ligand, HepG2), 74.2%; with HepG2 cells (200 nM ligand, HepG2), 95.9%.

For “5-FAM-CPMB-0014: CPS-001 cyclic peptide scaffold, Gal-4 GalNAc linker, 5-FAM label; FIG. 14D (KEKGKG; cyclised or stapled)”, the “Efficiency (%) of cellular uptake (percentage of ligand-bound HepG2 cells)” value in the assay on HepG2 cells (1.6 nM ligand, HepG2) is 2.3%; in the assay on HepG2 cells (8 nM ligand, HepG2) it was 24.4%; with HepG2 cells (40 nM ligand, HepG2) it was 71.0%; with HepG2 cells (200 nM ligand, HepG2), 96.5%.

Take “5-FAM-CPMB-0015: CPS-001 cyclic peptide scaffold, Gal-5 GalNAc linker, 5-FAM label; FIG. 14E (KEKGKG; cyclised or stapled)”: the “Efficiency (%) of cellular uptake (percentage of ligand-bound HepG2 cells)” value is given as 16.3% in the assay with HepG2 cells (1.6 nM ligand, HepG2); 36.3% with HepG2 cells (8 nM ligand, HepG2); 89.6% with HepG2 cells (40 nM ligand, HepG2); 99% in the assay on HepG2 cells (200 nM ligand, HepG2).

On to “5-FAM-CPMB-0021: CPS-002 cyclic peptide scaffold, Gal-1 GalNAc linker, 5-FAM label; FIG. 14F (KEKGKG; D-residues; cyclised or stapled)”, for which the “Efficiency (%) of cellular uptake (percentage of ligand-bound HepG2 cells)” value in the assay on HepG2 cells (1.6 nM ligand, HepG2) came to 6.8%; in the assay on HepG2 cells (8 nM ligand, HepG2) it was 46.1%; in the assay on HepG2 cells (40 nM ligand, HepG2), 88.7%; in the assay on HepG2 cells (200 nM ligand, HepG2), 98.8%.

“5-FAM-CPMB-0025: CPS-002 cyclic peptide scaffold, Gal-5 GalNAc linker, 5-FAM label; FIG. 14H (KEKGKG; D-residues; cyclised or stapled)”: the “Efficiency (%) of cellular uptake (percentage of ligand-bound HepG2 cells)” value in the assay with HepG2 cells (1.6 nM ligand, HepG2) is 1.6%; with HepG2 cells (8 nM ligand, HepG2), 30%; with HepG2 cells (40 nM ligand, HepG2), 83.1%; in the assay with HepG2 cells (200 nM ligand, HepG2) it was 98.2%.

Consider “5-FAM-CPMB-0031-Ac: negative control, cyclic peptide w/o tri-GalNAc; CPS-003, Gal-1; FIG. 14R (KEKGKG; D-residues; cyclised or stapled) [reference compound]”, for which the “Efficiency (%) of cellular uptake (percentage of ligand-bound HepG2 cells)” value with HepG2 cells (1.6 nM ligand, HepG2) was found to be 0.1%; in the assay on HepG2 cells (8 nM ligand, HepG2) it was 0.1%; in the assay with HepG2 cells (40 nM ligand, HepG2), 0.2%; in the assay with HepG2 cells (200 nM ligand, HepG2) it was 0.4%.

As for “5-FAM-CPMB-0031: CPS-003 cyclic peptide scaffold, Gal-1 GalNAc linker, 5-FAM label; FIG. 14I (KEKGKG; D-residues; cyclised or stapled)”, the “Efficiency (%) of cellular uptake (percentage of ligand-bound HepG2 cells)” value in the assay on HepG2 cells (1.6 nM ligand, HepG2) worked out at 6.0%; with HepG2 cells (8 nM ligand, HepG2), 44.2%; with HepG2 cells (40 nM ligand, HepG2) it was 87.8%; in the assay with HepG2 cells (200 nM ligand, HepG2) it was 98.6%.

Turning to “5-FAM-CPMB-0033: CPS-003 cyclic peptide scaffold, Gal-3 GalNAc linker, 5-FAM label; FIG. 14J (KEKGKG; D-residues; cyclised or stapled)”, the “Efficiency (%) of cellular uptake (percentage of ligand-bound HepG2 cells)” value was found to be 5.3% with HepG2 cells (1.6 nM ligand, HepG2); 34.5% in the assay with HepG2 cells (8 nM ligand, HepG2); 82.9% in the assay with HepG2 cells (40 nM ligand, HepG2); 98.2% in the assay with HepG2 cells (200 nM ligand, HepG2).

As for “5-FAM-CPMB-0034: CPS-003 cyclic peptide scaffold, Gal-4 GalNAc linker, 5-FAM label; FIG. 14K (KEKGKG; D-residues; cyclised or stapled)”, the “Efficiency (%) of cellular uptake (percentage of ligand-bound HepG2 cells)” value was 2.0% with HepG2 cells (1.6 nM ligand, HepG2); 25.6% with HepG2 cells (8 nM ligand, HepG2); 73.6% in the assay on HepG2 cells (40 nM ligand, HepG2); 95.6% with HepG2 cells (200 nM ligand, HepG2).

By Kd is commonly meant the equilibrium constant for the complex coming apart. In the case of “5-FAM-CPMB-0035: CPS-003 cyclic peptide scaffold, Gal-5 GalNAc linker, 5-FAM label; FIG. 14L (KEKGKG; D-residues; cyclised or stapled)”, the “Efficiency (%) of cellular uptake (percentage of ligand-bound HepG2 cells)” value in the assay on HepG2 cells (1.6 nM ligand, HepG2) turned out to be 11.1%; in the assay with HepG2 cells (8 nM ligand, HepG2) it was 63.2%; with HepG2 cells (40 nM ligand, HepG2), 95.2%; in the assay with HepG2 cells (200 nM ligand, HepG2) it was 99.5%. Further, the Kd with HepG2 cells (HepG2 cells, read-out: Equilibrium dissociation constant (kd)) was 5.7 nM. Also, in the assay with HepG2 cells (among 14 variants, HepG2), the “binding ability as compared to others and commercialized tri-GalNAc” value is recorded as “relatively higher binding ability”.

As for “5-FAM-CPMB-0311: CPS-031 cyclic peptide scaffold, Gal-1 GalNAc linker, 5-FAM label; FIG. 14M (KEKAKA; cyclised or stapled)”, the “Efficiency (%) of cellular uptake (percentage of ligand-bound HepG2 cells)” value in the assay with HepG2 cells (1.6 nM ligand, HepG2) is listed as 3.1%; with HepG2 cells (8 nM ligand, HepG2), 20.8%; with HepG2 cells (40 nM ligand, HepG2), 68.8%; in the assay with HepG2 cells (200 nM ligand, HepG2), 93.3%.

In the case of “5-FAM-CPMB-0313: CPS-031 cyclic peptide scaffold, Gal-3 GalNAc linker, 5-FAM label; FIG. 14N (KEKAKA; cyclised or stapled)”, the “Efficiency (%) of cellular uptake (percentage of ligand-bound HepG2 cells)” value was 3.0% in the assay with HepG2 cells (1.6 nM ligand, HepG2); 24.6% in the assay on HepG2 cells (8 nM ligand, HepG2); 73.2% in the assay with HepG2 cells (40 nM ligand, HepG2); 95.1% with HepG2 cells (200 nM ligand, HepG2).

Consider cyclo([dK]([Gal‑1-GalNAc])[dE]([Linker2-5FAM])[dK]([Gal‑1-GalNAc])G[dK]([Gal‑1-GalNAc])G) [5-FAM-CPMB-0021], for which the Efficiency (%) (proportion of FAM positive cells) in assay [1] stood at 46.1%; in assay [2], 6.8%; in assay [3] it was 98.8%; in assay [4], 88.7%.

B1: 5-FAM-CPMB-0025 (peptide)
peptide: KEKGKG
modifications: head-to-tail cyclic; D-Lys at the three Lys positions and D-Glu; each D-Lys side chain carries GalNAc via linker Gal-5; D-Glu side chain carries Linker2 with 5-FAM
On to B1, for which the Efficiency (%) (proportion of FAM positive cells) in assay [1] turned out to be 30%; in assay [2] it was 1.6%; in assay [3], 98.2%; in assay [4] it was 83.1%.

Source of the values: patent US20240218023A1, “CYCLIC PEPTIDE-N-ACETYLGALACTOSAMINE (GALNAC) CONJUGATES FOR DRUG DELIVERY TO LIVER CELLS” (MICROBIO (SHANGHAI) CO., LTD., priority 2021, published 2024).
